Assay results taken from patent US10167262B2, “Herbicidal substituted 3-arylpyrazoles” (FMC CORPORATION, priority 2014, dated 2019).
Like-named read-outs stand apart in the source and are kept apart here.

Experiments:
Format in all cases: in vivo
[1] = system: blackgrass (Alopecurus myosuroides); experiment: Test C pre-/postemergence greenhouse test, plant response rating 0-100; details: Alopecurus myosuroides; for pest or weed control at 250 g/ha: 250 g ai/ha
Method in brief: (§1)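 After treatment, pots stay in the greenhouse 13–15 days before each species is compared with untreated controls and given a 0–100 visual score. Preemergence seeds are in loam blended with sand; postemergence plants, 1–4 leaves, are in peat-based medium.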

[2] = system: lambsquarters (Chenopodium album); experiment: as above; details: Chenopodium album; for pest or weed control at 62 g/ha: 62 g ai/ha; for pest or weed control at 125 g/ha: 125 g ai/ha; for pest or weed control at 250 g/ha: 250 g ai/ha
Method in brief: as §1

[3] = system: johnsongrass (Sorghum halepense); experiment: as above; details: Sorghum halepense; for pest or weed control at 62 g/ha: 62 g ai/ha; for pest or weed control at 125 g/ha: 125 g ai/ha; for pest or weed control at 250 g/ha: 250 g ai/ha
Method in brief: as §1

[4] = system: winter wheat (Triticum aestivum); experiment: as above; details: Triticum aestivum; for plant injury at 62 g/ha: 62 g ai/ha; for plant injury at 125 g/ha: 125 g ai/ha; for plant injury at 250 g/ha: 250 g ai/ha
Method in brief: as §1

[5] = system: large (Lg) crabgrass (Digitaria sanguinalis); experiment: as above; details: Digitaria sanguinalis; for pest or weed control at 62 g/ha: 62 g ai/ha; for pest or weed control at 125 g/ha: 125 g ai/ha; for pest or weed control at 250 g/ha: 250 g ai/ha
Method in brief: as §1

[6] = system: wild oat (Avena fatua); experiment: Test C postemergence greenhouse test, plant response rating 0-100; details: Avena fatua, post-emergence
Method in brief: (§2)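 Scores run from 0, meaning no effect, to 100, meaning complete control, and come from visual comparison with untreated controls. Treatment was a postemergence application to plants 2–18 cm tall. Assessment followed 13 to 15 days of greenhouse growth.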

[7] = system: kochia (Kochia scoparia); experiment: as above; details: Bassia scoparia, post-emergence
Method in brief: as §2

[8] = system: chickweed (common chickweed, Stellaria media); experiment: as above; details: Stellaria media, post-emergence
Method in brief: as §2

[9] = post-emergence, Postemergence, scale 0 to 100
[10] = post-emergence, Postemergence, read-out: Plant response rating (0 to 100), Lambsquarters
[11] = pre-emergence, Preemergence, read-out: Plant response rating, Lambsquarters
[12] = pre-emergence, Preemergence, 500 g ai/ha
[13] = post-emergence, Postemergence, read-out: Plant response rating (0 to 100), Johnsongrass
[14] = pre-emergence, Preemergence, read-out: Plant response rating, Johnsongrass
[15] = post-emergence, Postemergence, read-out: Plant response rating (0 to 100), Wheat
[16] = pre-emergence, Preemergence, read-out: Plant response rating, Wheat
[17] = post-emergence, Postemergence, read-out: Plant response rating (0 to 100), Crabgrass, Large
[18] = pre-emergence, Preemergence, read-out: Plant response rating, Crabgrass, Large

## Cn1cc(C(=O)c2ccccc2)c(-c2cc(Cl)cc(Cl)c2)n1 [Compound 54, [3-(3,5-dichlorophenyl)-1-methyl-1H-pyrazol-4-yl]phenylmethanone]
[1]; [9]
  pest or weed control at 250 g/ha: 0%
[1]; pre-emergence, Preemergence, 62 g ai/ha, read-out: Plant response rating, Blackgrass
  pest or weed control at 62 g/ha: 0%
[1]; pre-emergence, Preemergence, 125 g ai/ha, read-out: Plant response rating, Blackgrass
  pest or weed control at 125 g/ha: 0%
[1]; pre-emergence, Preemergence
  pest or weed control at 250 g/ha: 0%
[2]; [10]
  pest or weed control at 62 g/ha: 50%
  pest or weed control at 125 g/ha: 55%
[2]; [9]
  pest or weed control at 250 g/ha: 55%
[2]; [11]
  pest or weed control at 62 g/ha: 30%
  pest or weed control at 125 g/ha: 40%
[2]; pre-emergence, Preemergence
  pest or weed control at 250 g/ha: 50%
[2]; [12]
  pest or weed control at 500 g/ha: 100%
[3]; [13]
  pest or weed control at 62 g/ha: 0%
  pest or weed control at 125 g/ha: 0%
[3]; [9]
  pest or weed control at 250 g/ha: 0%
[3]; [14]
  pest or weed control at 62 g/ha: 0%
  pest or weed control at 125 g/ha: 0%
[3]; pre-emergence, Preemergence
  pest or weed control at 250 g/ha: 0%
[3]; [12]
  pest or weed control at 500 g/ha: 0%
[4]; [15]
  plant injury at 62 g/ha: 0%
  plant injury at 125 g/ha: 0%
[4]; [9]
  plant injury at 250 g/ha: 0%
[4]; [16]
  plant injury at 62 g/ha: 0%
  plant injury at 125 g/ha: 0%
[4]; pre-emergence, Preemergence
  plant injury at 250 g/ha: 0%
[4]; [12]
  plant injury at 500 g/ha: 0%
[5]; post-emergence, Postemergence, 31 g ai/ha, read-out: Plant response rating (0 to 100), Crabgrass, Large
  pest or weed control at 31 g/ha: 0%
[5]; [17]
  pest or weed control at 62 g/ha: 0%
  pest or weed control at 125 g/ha: 0%
[5]; [9]
  pest or weed control at 250 g/ha: 0%
[5]; [18]
  pest or weed control at 62 g/ha: 0%
  pest or weed control at 125 g/ha: 0%
[5]; pre-emergence, Preemergence
  pest or weed control at 250 g/ha: 0%
[5]; [12]
  pest or weed control at 500 g/ha: 30%
[6]; 62 g ai/ha
  pest or weed control at 62 g/ha: 0%
[6]; 125 g ai/ha
  pest or weed control at 125 g/ha: 0%
[6]; 250 g ai/ha, scale 0 to 100
  pest or weed control at 250 g/ha: 0%
[7]; 62 g ai/ha
  pest or weed control at 62 g/ha: 60%
[7]; 125 g ai/ha
  pest or weed control at 125 g/ha: 65%
[7]; 250 g ai/ha, scale 0 to 100
  pest or weed control at 250 g/ha: 70%
[8]; 31 g ai/ha
  pest or weed control at 31 g/ha: 0%
[8]; 62 g ai/ha
  pest or weed control at 62 g/ha: 90%
[8]; 125 g ai/ha
  pest or weed control at 125 g/ha: 100%
[8]; 250 g ai/ha, scale 0 to 100
  pest or weed control at 250 g/ha: 100%
